Laboratory results: patent US20240109903A1, “SUBSTITUTED HETEROCYCLES FOR TREATING CANCER” (Northwestern University, priority 2022, published 2024)

How the values were obtained:
[1] = system: full NCI 60 cell panel; assay: NCI 60 Cell One-dose screen; format: cell-based, human; details: single high dose 10^−5 M, NCI 60 panel
Source text: Compounds were submitted to the NCI 60 Cell screen and tested at a single high dose (10^−5 M) in the full NCI 60 cell panel (see the following reference for details of using NCI 60 human tumor cell lines for screening anticancer drugs: Shoemaker R H. The NCI60 human tumor cell line anticancer drug screen. Nature Rev Cancer 2006; 6: 813-23). The One-dose data is reported as a mean graph of the percent growth of treated cells. The number reported for the One-dose assay is growth relative to the no-drug control, and relative to the time zero number of cells. This allows detection of both growth inhibition (values between 0 and 100) and lethality (values less than 0). For example, a value of 100 means no growth inhibition. A value of 40 would mean 60% growth inhibition. A value of 0 means no net growth over the course of the experiment. A value of −40 would mean 40% lethality. A value of −100 means all cells are dead. FIGS. 1-8 show the mean graph of percent growth against the NCI-60 cell panel for NUCC-0226674, NUCC-0226679, NUCC-0226680, NUCC-0226683, NUCC-0226689, NUCC-0226694, NUCC-0226695, and NUCC-0226698.

[2] = system: HL-60(TB); assay: NCI 60 five-dose screen HL-60(TB); format: cell-based; details: Homo sapiens
[3] = system: MOLT-4; assay: NCI 60 five-dose screen MOLT-4; format: cell-based; details: Homo sapiens
[4] = system: RPMI-8226; assay: NCI 60 five-dose screen RPMI-8226; format: cell-based; details: Homo sapiens
[5] = system: SR; assay: NCI 60 five-dose screen SR; format: cell-based, human
[6] = system: NCI-H226; assay: NCI 60 five-dose screen NCI-H226; format: cell-based; details: Homo sapiens
[7] = system: NCI-H322M; assay: NCI 60 five-dose screen NCI-H322M; format: cell-based; details: Homo sapiens
[8] = system: COLO 205; assay: NCI 60 five-dose screen COLO 205; format: cell-based; details: Homo sapiens
[9] = system: KM12; assay: NCI 60 five-dose screen KM12; format: cell-based; details: Homo sapiens
[10] = system: U251; assay: NCI 60 five-dose screen U251; format: cell-based; details: Homo sapiens
[11] = system: LOX IMVI; assay: NCI 60 five-dose screen LOX IMVI; format: cell-based; details: Homo sapiens
[12] = system: MDA-MB-435; assay: NCI 60 five-dose screen MDA-MB-435; format: cell-based; details: Homo sapiens
[13] = system: SK-MEL-28; assay: NCI 60 five-dose screen SK-MEL-28; format: cell-based; details: Homo sapiens
[14] = system: SK-MEL-5; assay: NCI 60 five-dose screen SK-MEL-5; format: cell-based; details: Homo sapiens
[15] = system: UACC-62; assay: NCI 60 five-dose screen UACC-62; format: cell-based; details: Homo sapiens
[16] = system: OVCAR-5; assay: NCI 60 five-dose screen OVCAR-5; format: cell-based; details: Homo sapiens
[17] = system: OVCAR-8; assay: NCI 60 five-dose screen OVCAR-8; format: cell-based; details: Homo sapiens
[18] = system: 786-0; assay: NCI 60 five-dose screen 786-0; format: cell-based; details: Homo sapiens
[19] = system: RXF 393; assay: NCI 60 five-dose screen RXF 393; format: cell-based; details: Homo sapiens
[20] = system: SN12C; assay: NCI 60 five-dose screen SN12C; format: cell-based; details: Homo sapiens
[21] = system: TK-10; assay: NCI 60 five-dose screen TK-10; format: cell-based; details: Homo sapiens
[22] = system: MDA-MB-231/ATCC; assay: NCI 60 five-dose screen MDA-MB-231/ATCC; format: cell-based; details: Homo sapiens
[23] = system: BT-549; assay: NCI 60 five-dose screen BT-549; format: cell-based; details: Homo sapiens
[24] = system: MDA-MB-468; assay: NCI 60 five-dose screen MDA-MB-468; format: cell-based; details: Homo sapiens
[25] = read-out: LC50 (the source's name) (converted)
[26] = read-out: LC50 (the source's name)

SMILES: O=c1ccc(Cn2c(C(F)(F)F)cc3c(Cl)ncnc32)c[nH]1 [NUCC-0226698]
- growth inhibition in the One-Dose Screen [1]: significant growth inhibition
- GI50 [2]: 2.09 µM
- IC50 [2]: 3.63 µM
- IC (TGI) [2]: 6.03 µM
- CC50 [2, 25]: ≥ 100 µM
- GI50 [3]: 3.24 µM
- IC50 [3]: 4.79 µM
- IC (TGI) [3]: 17 µM
- CC50 [3, 26]: ≥ 100 µM
- GI50 [4]: 22.9 µM
- IC50 [4]: 38 µM
- IC (TGI) [4]: 100 µM
- CC50 [4, 26]: ≥ 100 µM
- TGI [5]: 4.93 −log[M]
- GI50 ([5]; Homo sapiens): 2.75 µM
- IC50 ([5]; Homo sapiens): 3.89 µM
- CC50 ([5]; Homo sapiens, read-out: LC50 (the source's name)): ≥ 100 µM
- GI50 [6]: 31.6 µM
- IC50 [6]: 100 µM
- IC (TGI) [6]: 100 µM
- CC50 [6, 25]: ≥ 100 µM
- GI50 [7]: 14.1 µM
- IC50 [7]: 32.4 µM
- IC (TGI) [7]: 39.8 µM
- CC50 [7, 25]: ≥ 100 µM
- GI50 [8]: 87.1 µM
- IC50 [8]: 100 µM
- IC (TGI) [8]: 100 µM
- CC50 [8, 25]: ≥ 100 µM
- GI50 [9]: 17.8 µM
- IC50 [9]: 30.2 µM
- IC (TGI) [9]: 39.8 µM
- CC50 [9, 25]: 91.2 µM
- GI50 ([10]; U-251): 22.4 µM
- IC50 ([10]; U-251): 33.1 µM
- IC (TGI) ([10]; U-251): 69.2 µM
- CC50 ([10]; U-251, read-out: LC50 (the source's name) (converted)): ≥ 100 µM
- GI50 [11]: 1.66 µM
- IC50 [11]: 2.88 µM
- IC (TGI) [11]: 3.09 µM
- CC50 [11, 25]: 5.89 µM
- GI50 [12]: 4.68 µM
- IC50 [12]: 7.24 µM
- IC (TGI) [12]: 20.4 µM
- CC50 [12, 25]: 74.1 µM
- GI50 [13]: 3.89 µM
- IC50 [13]: 7.59 µM
- IC (TGI) [13]: 18.6 µM
- CC50 [13, 25]: 66.1 µM
- GI50 [14]: 4.07 µM
- IC50 [14]: 7.08 µM
- IC (TGI) [14]: 15.1 µM
- CC50 [14, 25]: 38.9 µM
- GI50 [15]: 5.5 µM
- IC50 [15]: 11 µM
- IC (TGI) [15]: 20 µM
- CC50 [15, 25]: 53.7 µM
- GI50 [16]: 61.7 µM
- IC50 [16]: 100 µM
- IC (TGI) [16]: 100 µM
- CC50 [16, 25]: ≥ 100 µM
- GI50 [17]: 3.55 µM
- IC50 [17]: 4.79 µM
- IC (TGI) [17]: 17.4 µM
- CC50 [17, 25]: ≥ 100 µM
- GI50 [18]: 43.7 µM
- IC50 [18]: 72.4 µM
- IC (TGI) [18]: 100 µM
- CC50 [18, 25]: ≥ 100 µM
- GI50 [19]: 11.2 µM
- IC50 [19]: 35.5 µM
- IC (TGI) [19]: 32.4 µM
- CC50 [19, 25]: 91.2 µM
- GI50 [20]: 6.46 µM
- IC50 [20]: 11.7 µM
- IC (TGI) [20]: 23.4 µM
- CC50 [20, 25]: 69.2 µM
- GI50 [21]: ≥ 100 µM
- IC50 [21]: 100 µM
- IC (TGI) [21]: 100 µM
- CC50 [21, 25]: ≥ 100 µM
- GI50 [22]: 4.68 µM
- IC50 [22]: 10 µM
- IC (TGI) [22]: 18.2 µM
- CC50 [22, 25]: 57.5 µM
- GI50 [23]: 14.1 µM
- IC50 [23]: 29.5 µM
- IC (TGI) [23]: 28.8 µM
- CC50 [23, 25]: 58.9 µM
- GI50 [24]: 2.09 µM
- IC50 [24]: 8.13 µM
- IC (TGI) [24]: 5.75 µM
- CC50 [24, 25]: 25.1 µM
